Measured values: patent US20060134670A1, “Enabling tools to identify ligands for hormone nuclear receptors” (priority 2004, published 2006)
Blank lines part the entries; values can stand above or below the compound they belong to.

Assays:
PXR/RXR heterodimer = biological target: T1, PXR/RXR heterodimer (Homo sapiens, UniProt O75469); conditions: 5 days
T1 sequence (O75469 1-434): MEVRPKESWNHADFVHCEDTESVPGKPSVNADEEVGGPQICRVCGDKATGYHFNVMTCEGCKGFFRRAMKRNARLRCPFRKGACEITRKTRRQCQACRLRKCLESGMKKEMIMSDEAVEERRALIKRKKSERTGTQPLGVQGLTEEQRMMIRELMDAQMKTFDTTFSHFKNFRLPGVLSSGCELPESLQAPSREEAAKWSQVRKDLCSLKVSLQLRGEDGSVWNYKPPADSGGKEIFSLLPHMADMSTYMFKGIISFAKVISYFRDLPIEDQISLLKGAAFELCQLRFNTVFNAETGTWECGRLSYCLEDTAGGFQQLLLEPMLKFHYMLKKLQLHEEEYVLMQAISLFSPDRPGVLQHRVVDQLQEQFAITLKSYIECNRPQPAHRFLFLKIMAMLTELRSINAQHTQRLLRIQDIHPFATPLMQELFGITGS
T1 sequence (P48443 1-463 partner): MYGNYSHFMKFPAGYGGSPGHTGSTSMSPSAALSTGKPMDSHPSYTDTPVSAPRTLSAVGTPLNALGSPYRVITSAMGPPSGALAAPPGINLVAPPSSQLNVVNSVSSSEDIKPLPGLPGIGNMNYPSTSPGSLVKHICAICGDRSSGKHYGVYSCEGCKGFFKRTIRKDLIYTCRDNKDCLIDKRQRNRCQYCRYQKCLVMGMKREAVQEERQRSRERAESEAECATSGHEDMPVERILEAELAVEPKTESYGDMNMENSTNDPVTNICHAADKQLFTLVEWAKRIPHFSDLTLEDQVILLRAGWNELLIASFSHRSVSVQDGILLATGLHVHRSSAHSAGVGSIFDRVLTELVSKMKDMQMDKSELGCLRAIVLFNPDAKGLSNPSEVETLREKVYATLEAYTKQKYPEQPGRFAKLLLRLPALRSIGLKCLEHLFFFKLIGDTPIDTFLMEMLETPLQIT
Procedure: On day one, cells were trypsinized, centrifuged and plated at 8,000 cells/well in a 96-well plate in 100 μl/well of Dubelcco's Modified Eagle's Medium (DMEM), 10% calf serum. On day two, cells were transfected using the transfection reagent Superfect® (Qiagen, Inc.) as recommended by the manufacturer. Various doses of the nuclear receptor plasmid DNA were transfected. DNA mixtures included 0.1 to 10 ng/well of receptors DNA, 20 to 30 ng/well of β-galactosidase plasmid DNA (pSV β-galactosidase, Promega) and 15 μl of Superfect®. On day three, the media was replaced by DMEM with 2% Cyto-SF3 (Kemp Biotechnologies, Inc.) containing variable amounts of the compounds being tested. […] All data were obtained by measuring the change in absorbance at 420 nm using an automated plate reader. EC50 values were calculated using the equation r=A+B(x/(c+c)), where A=minimum response, B=maximum response minus maximum response, c=EC50, r=response, and x=concentration of ligand. Curves were generated using XLFit software (Microsoft).
The coactivators GRIP1 (Glucocorticoid Receptor Interacting Protein 1) (GenBank U39060) and SRC-1 (Steroid Receptor Coactivator 1) (GenBank U90661) were used in this assay. In summary, plasmid DNA encoding the coactivator(s) were transfected along with the aforementioned transfection mixture (containing the PXR, RXR, and β-Gal plasmid DNAs).

LXRβ (NR1H2) = biological target: T2, LXRβ (NR1H2) (Homo sapiens, UniProt P55055); assay: R-SAT single receptor format, LXRβ; format: cell-based; conditions: NIH-3T3 cells transfected with LXRβ
T2 construct: expressed in transfected cells; host or cells: NIH-3T3
T2 sequence (P55055 1-460): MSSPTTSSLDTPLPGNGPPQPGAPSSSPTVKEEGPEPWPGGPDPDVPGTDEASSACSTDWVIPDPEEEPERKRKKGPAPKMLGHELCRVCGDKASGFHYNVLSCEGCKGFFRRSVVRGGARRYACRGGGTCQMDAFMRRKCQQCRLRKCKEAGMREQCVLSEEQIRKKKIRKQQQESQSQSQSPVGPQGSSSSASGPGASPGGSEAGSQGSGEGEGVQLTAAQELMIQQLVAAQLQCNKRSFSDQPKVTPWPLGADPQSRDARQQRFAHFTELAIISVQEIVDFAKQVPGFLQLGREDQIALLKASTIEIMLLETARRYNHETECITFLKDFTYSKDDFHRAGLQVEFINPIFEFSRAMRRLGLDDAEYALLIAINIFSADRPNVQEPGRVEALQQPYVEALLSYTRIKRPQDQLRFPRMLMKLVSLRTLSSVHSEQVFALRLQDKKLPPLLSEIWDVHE
Excerpt: (§1) Curves were generated using XLFit software ([…]).

LXRα (NR1H3) = biological target: T3, LXRα (NR1H3) (Homo sapiens, UniProt Q13133); assay: R-SAT single receptor format, LXRα; format: cell-based; conditions: NIH-3T3 cells transfected with LXRα
T3 construct: expressed in transfected cells; host or cells: NIH-3T3
T3 sequence (Q13133 1-447): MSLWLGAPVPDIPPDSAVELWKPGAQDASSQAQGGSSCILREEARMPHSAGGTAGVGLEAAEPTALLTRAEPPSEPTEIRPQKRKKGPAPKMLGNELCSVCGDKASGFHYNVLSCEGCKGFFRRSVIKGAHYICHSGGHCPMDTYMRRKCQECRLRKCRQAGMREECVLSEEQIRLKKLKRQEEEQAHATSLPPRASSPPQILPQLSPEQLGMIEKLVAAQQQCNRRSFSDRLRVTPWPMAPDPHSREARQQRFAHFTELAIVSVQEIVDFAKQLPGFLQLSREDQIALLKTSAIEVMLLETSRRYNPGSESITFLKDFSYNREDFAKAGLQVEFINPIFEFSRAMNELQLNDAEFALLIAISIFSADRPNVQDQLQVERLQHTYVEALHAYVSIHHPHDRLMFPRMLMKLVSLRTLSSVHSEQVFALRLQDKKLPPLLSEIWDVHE
Excerpt: as §1

PPARδ (NR1C2) = biological target: T4, PPARδ (NR1C2) (Homo sapiens, UniProt Q03181); assay: R-SAT single receptor format, PPARδ; format: cell-based; conditions: NIH-3T3 cells transfected with PPARδ
T4 construct: expressed in transfected cells; host or cells: NIH-3T3
T4 sequence (Q03181 1-441): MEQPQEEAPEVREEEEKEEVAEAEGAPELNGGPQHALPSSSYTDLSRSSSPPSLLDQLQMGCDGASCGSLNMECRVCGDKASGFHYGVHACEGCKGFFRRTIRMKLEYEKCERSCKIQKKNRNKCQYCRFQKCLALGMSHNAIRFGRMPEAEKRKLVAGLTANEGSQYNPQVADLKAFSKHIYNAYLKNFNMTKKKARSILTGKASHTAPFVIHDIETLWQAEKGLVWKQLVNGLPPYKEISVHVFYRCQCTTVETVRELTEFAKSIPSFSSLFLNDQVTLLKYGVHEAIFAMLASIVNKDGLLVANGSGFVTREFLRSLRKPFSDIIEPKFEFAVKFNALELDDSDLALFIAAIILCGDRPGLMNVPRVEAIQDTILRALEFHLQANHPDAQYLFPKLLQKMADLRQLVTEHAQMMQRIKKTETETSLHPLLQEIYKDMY
Excerpt: as §1

[1] = biological target: T5, CARα and RXR nuclear receptors (heterodimer) (Homo sapiens, UniProt Q14994); assay: R-SAT inverse agonism, CARα/RXR; format: cell-based; conditions: cells transfected with CARα and RXR, β-galactosidase activity, FIG. 4A
T5 construct: expressed in transfected cells
T5 sequence (Q14994 1-348 isoform Q14994-2): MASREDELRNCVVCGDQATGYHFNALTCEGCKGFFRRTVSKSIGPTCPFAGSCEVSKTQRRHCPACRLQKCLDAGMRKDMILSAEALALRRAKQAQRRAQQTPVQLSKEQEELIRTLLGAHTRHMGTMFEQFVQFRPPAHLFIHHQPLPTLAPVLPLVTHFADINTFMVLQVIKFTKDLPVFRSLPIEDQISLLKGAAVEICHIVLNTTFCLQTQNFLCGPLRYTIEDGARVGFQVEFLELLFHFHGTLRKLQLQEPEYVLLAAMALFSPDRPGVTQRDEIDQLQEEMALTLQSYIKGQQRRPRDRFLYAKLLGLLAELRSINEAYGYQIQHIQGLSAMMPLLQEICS
T5 sequence (P48443 1-463 partner): T1 sequence (P48443 1-463 partner)
Excerpt: as §1

efficacy of pharmacological response (PXR/RXR heterodimer): 5-10%
SMILES: CO[C@H]1/C=C/O[C@@]2(C)Oc3c(C)c(O)c4c(O)c(c(/C=N/N5CCN(C)CC5)c(O)c4c3C2=O)NC(=O)/C(C)=C\C=C\[C@H](C)[C@H](O)[C@@H](C)[C@@H](O)[C@@H](C)[C@H](OC(C)=O)[C@@H]1C [rifampicin]

EC50 (LXRβ (NR1H2)): 3 to 5 µM | EC50 (LXRα (NR1H3)): 3 to 5 µM
SMILES: CC(C)CC[C@@H](O)[C@@H](C)[C@H]1CC[C@H]2[C@@H]3CC=C4C[C@@H](O)CC[C@]4(C)[C@H]3CC[C@]12C [22(R)OH-Cholesterol]

EC50 (PPARδ (NR1C2)): 0.2 to 0.5 µM
SMILES: CCCCC[C@H](O)/C=C/[C@@H]1[C@H]2C/C(=C/CCCC(=O)O)C[C@H]2C[C@H]1O [carbaprostacyclin]

SMILES: C[C@]12CC[C@@H](O)C[C@@H]1CC[C@@H]1[C@@H]2CC[C@]2(C)C=CC[C@@H]12 [Androstenol]
inverse agonist activity [1]: inverse agonist activity
